In patent publication US7078163B2, “Process for reducing mineralization of tissue used in transplantation” (Medtronic, Inc., priority 2001, dated 2006):

Biological target: T1, Chymotrypsin (Bos taurus, UniProt P00766)
T1 construct: purchased Sigma C 4129; host or cells: bovine pancreas (tissue-derived)
Assay: AZOCOLL enzyme activity assay of chymotrypsin after exposure to reducing agent
Type: biochemical, bovine
Conditions: chymotrypsin exposed to DTT 10 mM in presence of SDS 1% w:v, 2 hours, 37-40° C., desalted; AZOCOLL 37° C. 20 minutes; mean of 3; positive control 0.523, negative control 0.003
Description: Stock trypsin and chymotrypsin solutions were solubilized from dry powder supplied by the manufacturer in PBS, pH 7.4, at room temperature. Protein concentrations were set at 1 mg/ml. Protein solutions were sterile filtered through a 0.45 μm syringe filter to eliminate potential bacterial contamination.
Working solution of the protein was prepared by dilution from concentrated stock to a final concentration of 100 μg/ml.
The protein was incubated with the agents for 2 hours. […] The protein was passed over a Sephadex G-25 column, as described above, to prepare it for the assay. After the protein was eluted from the column it was used immediately in the assay.
Each of the proteins that were exposed to an agent was assessed for its activity by incubating it with a collagen substrate with an azo containing dye. AZOCOLL was suspended in PBS at a concentration of 1 mg/ml.
For the assay, 1 ml of protein was mixed with 1 ml of AZOCOLL substrate. The reaction was performed at 37° C. for 20 minutes in Ependorff microfuge tubes. […] The aqueous solution was removed from the centrifuge tubes and the absorbance of the solution (containing soluble azo dye) was monitored at 520 nm. […]
All experiments were run in triplicate. Data reported is the mean of the 3 readings. […]

O[C@@H](CS)[C@@H](O)CS [reducing agent, dithiothreatol]
Abs. @ 520 nm: 0.031
